row,SMILES,melting point
1,O=C(CBr)c1cccc(Nc2ccc3ccccc3n2)c1,151 to 152 °C
2,Cc1ccc([N+](=O)[O-])cc1C=CC#N,113 °C
3,COC[C@H]1CN(c2ccc(CCC[C@@H](C)O)cc2)C(=O)O1,65 °C
4,CN1Cc2c(-c3nc(CCl)co3)ncn2-c2ccccc2C1=O,196 to 198 °C
5,COc1ccc(CC(CS)C(=O)Nc2cccc(C(=O)O)c2)cc1 (stereo unspecified),184 to 185 °C
6,COC(=O)C(Oc1ccc(OCc2ccccc2)cc1)c1ccc(Oc2ccc(Cl)cc2)cc1 (stereo unspecified),88 to 90 °C
7,CC(CNc1nc2ccccc2o1)C(=O)NCCCN(C)Cc1ccc(Cl)c(Cl)c1 (stereo unspecified),134 to 135 °C
8,Cn1ncnc1COc1nc2c(cc1C1CCC1)nnn2-c1c(F)cccc1F,140 to 144 °C
9,COc1cc(OC)cc(-c2nn(C(C)c3oc4ccccc4c(=O)c3-c3cccc(F)c3)c3ncnc(N)c23)c1 (stereo unspecified),224 to 227 °C
10,COc1cc2c3c([nH]c2c(Cl)c1Cl)C(=O)NCC3,263 to 264 °C
11,COc1ccc(N=C(NC(=S)NCCO)c2ccccc2)cc1,141 to 142 °C
12,Cc1oc(-c2ccc3ccccc3c2)nc1COc1ccc(CCCCC2OC(=O)NC2=O)cc1 (stereo unspecified),163 to 164 °C
13,COC(=O)c1ccc(N=Cc2ccccc2)cn1,84 to 89 °C
14,CC(=O)C(c1ccccc1)c1cccc2c1NCC2 (stereo unspecified),55 to 56 °C
15,O=C1CCN(C(=O)C(F)(F)F)c2ccccc2CN1,218 to 219 °C
16,COc1ccnc(CSc2nc3cc(OC(F)F)ccc3[nH]2)c1OC,104 to 108 °C
17,CCC(CCC(=C(C#N)C(N)=O)c1cc(O)c(O)c(O)c1)NC(=O)C(C#N)=Cc1cc(O)c(O)c(O)c1 (stereo unspecified),> 300 °C
18,C[C@@H](O)[C@H](NC(=O)c1ccc(F)c(Br)c1)C(=O)NO,152 to 153 °C
19,CCOCCn1cc2c(C3C(=O)Nc4ccc(Cl)cc43)nc(NCc3cccnc3)nc2n1 (stereo unspecified),294 to 296 °C
20,O=C(Nc1cccc2c(=O)cc(-c3nnn[nH]3)oc12)c1ccc2c(c1)CCC(COCc1ccccc1)O2 (stereo unspecified),214 to 216 °C
21,CC(Cc1cc(F)cc2cc(Cl)oc12)NC(=O)OC(C)(C)C (stereo unspecified),133 to 135 °C
22,CC(C)(CO)NS(=O)(=O)c1cccc(NC(=O)c2cnn3c(C(F)(F)F)cc(-c4ccc(C(F)(F)F)c(OCC(F)(F)F)c4)nc23)c1,251 °C
23,CCCC(=O)Nc1ccccc1C(F)(F)F,76 °C
24,CCCCCCCCCCCCCC(=O)c1c(O)cc(C)c(O)c1CCC,62 °C
25,Cc1cc(F)cnc1Cl,38 to 40 °C
26,C1=COc2ccccc2O1,59 to 61 °C

row,SMILES,melting point
1,COc1cccc(S(=O)c2cccc(F)c2C#N)c1 (stereo unspecified),103 to 111 °C
2,CN1CCN(C(=O)Cn2c(-c3cc(Cl)ccn3)nc3cccnc32)CC1,174 to 175 °C
3,CC(C)(C)C(=O)Nc1ccncc1-c1n[nH]c2ccccc12,232 to 233 °C
4,ClCc1ccccc1-c1ccccc1-c1ccccc1CCl,189 to 190 °C
5,CC(=O)OC1CCCC2=CCC3C4CCC(C(C)CCCC(C)C)C4(C)CCC3C21C (stereo unspecified),65 to 66 °C
6,O=P1(c2ccccc2)c2ccccc2CN1c1ccc(Br)cc1 (stereo unspecified),200 to 202 °C
7,[O-][N+](C1C2CC(c3ccccc32)C1Cl)=[N+]([O-])C1C2CC(c3ccccc32)C1Cl (stereo unspecified),187 to 188 °C
8,O=C(O)CCCN(Cc1cccc(Cl)c1)Cc1cccc(Cl)c1,170 to 173 °C
9,NC(=O)c1ccccc1NC(=O)c1ccc2c(c1)CCO2,230 to 235 °C
10,CS(=O)(=O)Nc1ccc(C#CCCN2CC=C(c3ccccc3)CC2)nc1,138 to 139 °C
11,C=CCc1cc(C(C)=O)c(NC(C)=O)cc1O,172 to 174 °C
12,FC(F)(F)Sc1ccc(C=Cc2nc(CNc3ccc(CCCCn4ccnn4)cc3)co2)cc1,76 to 78 °C
13,CCn1c(=O)cc(C)c2cc(C(O)(C(F)(F)F)C(F)(F)F)ccc21,91 to 92 °C
14,O=[N+]([O-])c1ccc(-c2scc3c2OCCO3)cc1,184 to 186 °C
15,COc1ccc(C#Cc2ccccc2)c(CC(C)=O)c1,60 to 62 °C
16,CCOC(=O)COC(=O)c1c(Cl)cccc1Cl,50 to 51 °C
17,CCOC(=O)COc1cccc2c1OCC2=O,89 to 90 °C
18,COc1ccc(C[C@@H](NC(=O)c2ccc(F)c3ccccc23)[C@@H](O)c2ccc(F)cc2)cc1 (racemic),210 to 211 °C
19,c1ccc(SC2CCN(C(c3ccccc3)c3ccccc3)CC2)cc1,118 to 119 °C
20,OCCOc1ccc2cc[nH]c2c1,74 to 77 °C
21,CCCCCCCCCCCCCCCCN(C(=O)c1ccc(Cl)c([N+](=O)[O-])c1)c1ccccc1[N+](=O)[O-],83 to 85 °C
22,CC1CCCCC1NC(=O)C1=C(C(=O)Nc2cc(OC3CCCC3)c(Cl)cc2F)CCCC1 (stereo unspecified),192 to 195 °C
23,COC(=O)c1cc(OC(=S)N(C)C)c2cc(-c3ccc(OC)c(C45CC6CC(CC(C6)C4)C5)c3)ccc2c1C,137 to 138 °C
24,C=CCOC(=O)c1ccc(N=C(NC)c2ccc(OC)c(C34CC5CC(CC(C5)C3)C4)c2)cc1,77 to 79 °C
25,Nc1ccc(-c2cc3c(N4CCCc5ccccc54)ncnc3[nH]2)cc1,243 to 245 °C
26,C=CCC1(C(=O)NCCC)c2ccccc2CCc2ccccc21,76 to 79 °C

row,SMILES,melting point
1,COc1ccc(N)c(-c2cc3ccccc3[nH]2)c1,97 to 99 °C
2,Cc1noc(C)c1-c1cccc2c1C1(COc3cc4c(cc31)OCCO4)C(=O)N2C (stereo unspecified),228 to 230 °C
3,CN(CCCCC(=O)N1CCN(c2nc3cc(C(=O)Nc4nc(C(C)(C)C)cs4)ccn3c(=O)c2/C=C/C(=O)O)CC1)CC(=O)O,169 to 172 °C
4,N#CC1CN1C(=O)NC(=O)C=Cc1ccccc1 (stereo unspecified),134 to 136 °C
5,O=Cc1c2ccccc2cc2ccc(Cl)cc12,148 to 150 °C
6,COc1cc(C(=O)/C=C/c2c(-c3ccc(F)cc3)nc3sccn23)cc(OC)c1OC,222 to 225 °C
7,COc1ccc2oc3cc(C#N)ccc3c(=O)c2c1,254 to 255 °C
8,CS(=O)(=O)c1ccc(-c2ncccc2C(=O)c2ccccn2)cc1,143 to 147 °C
9,O=C(O)Cc1cccc(OCCCCl)c1,83 to 84 °C
10,CCCCC(=O)C(=C1NCCCS1)[N+](=O)[O-],61.5 to 64 °C
11,CC(=NO)c1ccc2c(c1O)OC(CO)CO2 (stereo unspecified),162 °C
12,CC1(C)CCC(C)(C)c2c(CO)cc(-c3ccccc3)cc21,80 to 82 °C
13,NC(=O)NC(=O)C(Cl)(Cl)CC1(c2cc(Cl)cc(Cl)c2)CO1 (stereo unspecified),186 to 189 °C
14,CN(C)C=Nc1snc(C#N)c1C#N,173 °C
15,Cc1cc(C(=O)NC2CC2)ccc1N1CCN(Cc2cc(C)c3c(c2)NC(=O)C(C)O3)CC1 (stereo unspecified),241 to 242 °C
16,CCCn1cnc(NC)c1C(=O)NCCCCCCOc1ccc(Cl)cc1,66 to 67 °C
17,COc1cc(C(=O)O)cc(OC)c1Cc1cnc(N)nc1N,264 to 267 °C
18,CCCCOc1nc(N)c2[nH]c(=O)n(CCCNS(=O)(=O)c3cccc(CC(=O)OC)c3)c2n1,218 to 219 °C
19,C#Cc1cc(Oc2cnc(NC(CO)CO)nc2N)c(C(C)C)cc1OC,136 to 139 °C
20,COC(=O)c1cc(COc2c(OC)c3cocc(OC)c-3c2C(C)=O)ccc1COc1c(OC)c2cocc(OC)c-2c1C(C)=O,87 to 89 °C
21,CCC(=O)Cc1ccc(OCc2nnn[nH]2)cc1,148 to 150 °C
22,COc1ccc2c(CCBr)c[nH]c2c1,98 to 101 °C
23,CN(C)CC(=O)NCc1ccc(-c2cc3c(Nc4ccc(F)c(Cl)c4)ncnc3[nH]2)cc1,320 to 325 °C
24,Clc1ncn(COc2ccc(Oc3ccccc3)cc2)c1Cl,82 to 83 °C
25,Cc1ccc(C(=C/C=C/C(=O)Oc2ccc([N+](=O)[O-])cc2)c2ccc(C)cc2)cc1,154 °C
26,CCOC(=O)CC(C(=O)c1ccccc1)C(=O)c1ccccc1,81 to 83 °C

row,SMILES,melting point
1,Cn1c(=S)n(C)c(=O)n(-c2ccc(F)cc2F)c1=O,156 to 159 °C
2,CCc1nc2c(cnn2CC)c(NC2CCOCC2)c1CNC(=O)c1cc(C)cc(C(=O)NCc2cccc(-c3cccc(CC4CCN(C)CC4)c3)c2)c1,119 to 121 °C
3,CCOC(=O)CNC(=O)CN(C(=O)c1ccc(Cl)cc1)c1c(C)cccc1C,127 to 129 °C
4,NC(=O)Nc1ccccc1S,151 to 153 °C
5,CCCCN(CCCC)c1ccc(C=Cc2ccc(C=CC3=C(C#N)C(=C(C#N)C#N)OC3(C)C)cc2)c(OC)c1,258 to 260 °C
6,O=Cc1ccc(N2CCC(O)CC2)cc1,115 to 118 °C
7,Cn1cc(C=CC(=O)NCCO)c([N+](=O)[O-])n1,176 to 178 °C
8,COC(=O)C1=CCC2C(CCC3C(C)(C)CCCC23C)C(=O)C1 (stereo unspecified),93 to 94 °C
9,CS(=O)(=O)c1ccc(C(CC2CCCC2)C(=O)Nc2cnccn2)cc1[N+](=O)[O-] (stereo unspecified),104 to 108 °C
10,CC1(C)CCCC(=O)N1,128 to 131 °C
11,COc1cc(OC)c2c(=O)[nH]c(-c3ccc(OCCNC(C)C)c(-c4ccc(S(C)(=O)=O)cc4C)n3)nc2c1,202 to 203 °C
12,CC(C)(C)OC(=O)C(CN)CC(=O)N1CCNCC1 (stereo unspecified),142 °C
13,CC(=O)NC(Cl)C(Cl)(Cl)CCl (stereo unspecified),70 to 72 °C
14,C=CC(=O)Nc1csc(Br)n1,152 to 154 °C
15,CN(C)c1ncnc2[nH]c(-c3ccc(CO)cc3)cc12,306 to 309 °C
16,C[C@H]1CCCC(C)(C)[C@@H]1[C@H](O)c1ccc(C#N)cc1,106 to 108 °C
17,Cc1c(-c2csc(-c3ccncc3)n2)c(=O)[nH]c2ccccc12,> 250 °C
18,COc1ccc(CNc2c(C)c(C)c3c(c2C)C(c2ccccc2)C(C)(C)O3)cc1 (stereo unspecified),113 to 115 °C
19,COC(=O)C1=C(C(OC)OC)NC(C)=C(c2nc(CCl)no2)C1c1cccc([N+](=O)[O-])c1 (stereo unspecified),141 to 142 °C
20,c1ccc(C2CCN(c3nsc4ccccc34)CC2)cc1,175 to 177 °C
21,CCC1c2cccn2-c2ccc(F)cc2N1C(=O)c1ccc(OC)cc1 (stereo unspecified),39 to 42 °C
22,Nc1cc(-c2nnc(CCc3cccc(C(F)(F)F)c3)o2)ccn1,161 to 163 °C
23,OCc1nn(C(c2ccccc2)(c2ccccc2)c2ccccc2)c2ccccc12,192 to 193 °C

# From a melting point compilation (Tetko et al.; mined from patent text by program, amines drawn as free bases though some values may be those of a salt)
